The results in this text go back to publication PMC10107917 (ACS Medicinal Chemistry Letters, 2023).

Bridge positions count the residues as written; N and C are the ends. Peptide text beside a SMILES is read from it.

This data set can be described thus: Stability in human serum (HPLC). The data set is classed as in vitro ADME. Also noted: remaining at 5 h / remaining at 48 h: dose or concentration left out as unconfirmed. Particulars: 37 °C; for remaining at 5 h: after 5 h of incubation, read-out: intact peptide detected by HPLC; for state of peptide in human serum: after 24 h; for remaining at 48 h: after 48 h of incubation, read-out: initial concentration of peptide remaining unchanged (HPLC). The method, then:
Next, we examined the stabilities of inhibitors 3, 5, 6, and FI in human serum (Figure 6). As expected, both monocyclic peptides (3 and FI) were degraded more rapidly than bicyclic inhibitors 5 and 6. After 5 h of incubation, about 25% of intact peptide 3 and 15% of FI were detected by HPLC. […] By contrast, the bicyclic peptides were clearly more resistant and stable. About 59% and 28% (based on HPLC data) of the initial concentrations of peptide 5 and peptide 6, respectively, remained unchanged even after 48 h of incubation. […] This possible protease-driven degradation was not confirmed in any additional experiments and must be treated with caution. It might be also speculated that the observed decrease in concentrations of both bicyclic peptides is related to binding to serum proteins during the long incubation process and subsequent sample preparation before HPLC analysis, as mentioned elsewhere.[36] Generally, our results are in accordance with the widely recognized observation that macrocyclization of peptides increases their stability. […]
Next step was addition of appropriate peptide solution
(final concentration in well 100 µM) and 30 min incubation in 37 °C. After this time 10 µL substrate (100 µM final concentration) was added to the well. Percentage inhibition of the enzyme was calculated relative to the control sample without inhibitor.
Human serum from plasma (Sigma Aldrich, Germany) was prepared for the assay as referred previously.8 The experiments were carried out according to the procedure described before.2 The initial concentration of the peptide solutions was 1.54 mM. Each peptide solution was then diluted 10 times with human serum and incubated at 37 °C. Immediately after the start of incubation, 1, 2, 3, 5 and 24 […]
hours the samples of 200 μL were taken and mixed with 200 μL of acetonitrile to separate the human serum proteins. The formed precipitate was removed by centrifugation for 10 min at 13,000 rpm. The supernatant was stored in 3-4 °C for at least 1 hour before being analyzed by RP-HPLC (linear gradient 10-90% phase B, 40 min., Kinetex 5 μm XB-C18 100Å 150 x 4.6 mm) and MALDI-MS (Autoflex maX MALDI-TOF spectrometer, Bruker Daltonics, Germany). In order to determine peptide stability at each time point, the peptide peak area from recorded chromatograms was compared with the peptide peak area obtained directly after mixing peptide and plasma, and expressed as its percentage.
Molecular dynamics simulations […]
(Figure 5SA) bound to the furin active site were built based on the crystal structure of MT-SP1 in complex with SFTI-1 (PDB ID: 1P8J 2.0 Å) by aligning catalytic triad of both proteins in PyMOL, Molecular Graphics System, Version 2.0 Schrödinger, LLC software. Next, SFTI-1 peptide was replaced by one of the five designed ligands (Figure 5SB). Five resulting furin-inhibitor complexes were further used as starting structures for the molecular dynamic (MD) calculations.
The AMBER20 suite was used to perform MD simulations,9 ff14SBonlysc10 force field parameters were used. The initial complex structures were built in the xLeap module of AMBER20. The periodic boundary conditions with TIP3P11 octahedral water box and Na+ counterions were used. Two steps of energy minimization were performed: first 500 steepest descent and then 1000 conjugate gradient cycles with harmonic restraints of 10 kcal/mol/Å2 on the solute, next 3000 steepest descent and 3000 conjugate gradient cycles without restraints. Next, the systems were heated up to 300K for 10 ps in NVT ensemble followed by the simulations in NPT ensemble at the pressure of 105 Pa. Finally, five independent MD production runs of 100 ns for each furin-inhibitor complex were performed in NPT ensemble. The time integration step was 2 fs, the cutoff for non-bonded interactions was 8 Å, the SHAKE algorithm for the covalent bonds that included hydrogen atoms12 and the Particle Mesh Ewald procedure13 were used. The […]

Take `CC[C@H](C)[C@@H]1NC(=O)[C@@H]2CCCN2C(=O)[C@@H]2CCCN2C(=O)[C@H]([C@@H](C)CC)NC(=O)[C@H](CO)NC(=O)[C@H](CCCCN)NC(=O)[C@H](CCCCN)NC(=O)[C@@H](NC(=O)[C@H](CCCNC(=N)N)NC(=O)[C@@H](N)CCCCN)CSSC[C@@H](C(=O)N[C@@H](Cc2ccccc2)C(N)=O)NC1=O` [FI, Lys-Arg-Cys(&)-Lys-Lys-Ser-Ile-Pro-Pro-Ile-Cys(&)-Phe-NH2, reference compound] (H-KRCKKSIPPICF-NH2; disulfide 3-11; N-terminus assumed): the remaining at 5 h was ~15% and the “state of peptide in human serum” value is listed as “completely degraded”. The like results for `CC[C@H](C)[C@@H]1NC(=O)[C@@H]2CCCN2C(=O)[C@@H]2CCCN2C(=O)[C@H]([C@@H](C)CC)NC(=O)[C@H](CO)NC(=O)[C@H](CCCCN)NC(=O)[C@H](CCCCN)NC(=O)[C@@H](NC(=O)[C@H](CCCNC(=N)N)NC(=O)[C@H](CCCNC(=N)N)NC(=O)[C@@H](N)CCCNC(=N)N)CSSC[C@@H](C(=O)N[C@@H](Cc2ccccc2)C(N)=O)NC1=O` [inhibitor 3, Arg-Arg-Arg-Cys(&)-Lys-Lys-Ser-Ile-Pro-Pro-Ile-Cys(&)-Phe-NH2] (H-RRRCKKSIPPICF-NH2; disulfide 4-12) were, in that order, ~25% and “completely degraded”. With `CC[C@H](C)[C@@H]1NC(=O)[C@@H]2CCCN2C(=O)[C@@H]2CCCN2C(=O)[C@H]([C@@H](C)CC)NC(=O)[C@H](CO)NC(=O)[C@H](CCCCN)NC(=O)[C@H](CCCCN)NC(=O)[C@@H]2CSSC[C@H](NC1=O)C(=O)N[C@@H](Cc1ccccc1)C(=O)N[C@@H](CCCCN)C(=O)N[C@@H](CCCNC(=N)N)C(=O)N[C@@H](CCCNC(=N)N)C(=O)N2` [inhibitor 5, &^1Lys-Arg-Arg-Cys(&^2)-Lys-Lys-Ser-Ile-Pro-Pro-Ile-Cys(&^2)-Phe&^1] (cyclo(KRRCKKSIPPICF); disulfide 4-12), the remaining at 48 h is ~59%.

Consider `CC[C@H](C)[C@@H]1NC(=O)[C@@H]2CCCN2C(=O)[C@@H]2CCCN2C(=O)[C@H]([C@@H](C)CC)NC(=O)[C@H](CO)NC(=O)[C@H](CCCCN)NC(=O)[C@H](CCCCN)NC(=O)[C@@H]2CSSC[C@H](NC1=O)C(=O)N[C@@H](Cc1ccccc1)C(=O)N[C@@H](CCCNC(=N)N)C(=O)N[C@@H](CCCNC(=N)N)C(=O)N[C@@H](CCCNC(=N)N)C(=O)N2` [inhibitor 6, &^1Arg-Arg-Arg-Cys(&^2)-Lys-Lys-Ser-Ile-Pro-Pro-Ile-Cys(&^2)-Phe&^1] (cyclo(RRRCKKSIPPICF); disulfide 4-12), for which the remaining at 48 h was ~28%.
